Reference: paper PMC10099666, “Structure Elucidation, Total Synthesis, Antibacterial In Vivo Efficacy and Biosynthesis Proposal of Myxobacterial Corramycin” (Angewandte Chemie (International Ed. in English), 2022)
≈ marks a conversion by molar mass, not a printed value. *1 amine or outer side, *2 acyl side, *3 side chain or, on linkers, in order; H or OH if unused. Where a SMILES comes first, the peptide text is derived from it. [ ]: non-standard residue; d: D form. The star is where a group is joined. Ava(2S,3R-(OH)2,4S-OMe) = CO[C@@H](CN[*:1])[C@H](O)[C@H](O)C(=O)[*:2]; dHis(βS-OH,π-Me) = Cn1cncc1[C@@H](O)[C@@H](N)C(=O)O; Butanoyl(2R-OH,3S-OH) = C[C@H](O)[C@@H](O)C(=O)*; Val(3-OH) = CC(C)(O)[C@H](N)C(=O)O; NMeF = CN[C@@H](Cc1ccccc1)C(=O)O

How the values were obtained:
[1] = test system: Klebsiella pneumoniae 1705966; assay type: cell-based; settings: strain 1705966; CAMHB, CLSI/EUCAST broth microdilution, 5x10^5 CFU mL-1, 20-22 h, duplicates
Method: (§1) 5. Determination of the minimal inhibitory concentration (MIC) in vitro The MIC of Corramycin was evaluated following the Clinical & Laboratory Standard Institute (CLSI; https://clsi.org) and EUCAST (https://eucast.org) guidelines. First, inoculi of the bacterial test strains were prepared by culturing isolated colonies in cation-adjusted Müller Hinton broth (CAMHB; 2 g L-1 beef infusion solids, 1.5 g L-1 starch, 17.5 g L-1 casein hydrolysates, final pH 7.4) at 37 °C and 180 rpm for 18 h. Next, Corramycin, which was dissolved in DMSO, was transferred into the first row of a 96-well plate to reach an end concentration of 64 µg mL-1 (in 100 µL total volume). A 1:1 serial dilution in cation-adjusted Mueller Hinton broth (CAMHB) of the test compound was done from the top row to the bottom row of the 96-well plate to reach an end concentration of 0.125 µg mL-1 in the bottom row. Afterwards, the respective test strains were transferred into the wells, reaching a total volume of 100 µL and 5x10^5 colony-forming units (CFU) mL-1. After a 20 to 22 h of incubation, the optical density was evaluated on a microplate reader and the MIC endpoint was determined as the lowest concentration of antibiotic at which there was no visible growth observed. Each MIC experiment was performed in duplicates. Table S 4 depicts the MIC values of Corramycin against all bacterial strains tested in this study. […]

[2] = test system: Salmonella typhimurium ATCC13311; assay type: cell-based; settings: strain ATCC13311; CAMHB, CLSI/EUCAST broth microdilution, 5x10^5 CFU mL-1, 20-22 h, duplicates
Method: as §1

[3] = test system: Enterococcus faecalis 1069 VanB; assay type: cell-based
Method: as §1

[4] = test system: Escherichia coli NCTC10418; assay type: cell-based; settings: strain NCTC10418; CAMHB, CLSI/EUCAST broth microdilution, 5x10^5 CFU mL-1, 20-22 h, duplicates
Method: (§2) 5. Determination of the minimal inhibitory concentration (MIC) in vitro The MIC of Corramycin was evaluated following the Clinical & Laboratory Standard Institute (CLSI; https://clsi.org) and EUCAST (https://eucast.org) guidelines. First, inoculi of the bacterial test strains were prepared by culturing isolated colonies in cation-adjusted Müller Hinton broth (CAMHB; 2 g L-1 beef infusion solids, 1.5 g L-1 starch, 17.5 g L-1 casein hydrolysates, final pH 7.4) at 37 °C and 180 rpm for 18 h. Next, Corramycin, which was dissolved in DMSO, was transferred into the first row of a 96-well plate to reach an end concentration of 64 µg mL-1 (in 100 µL total volume). A 1:1 serial dilution in cation-adjusted Mueller Hinton broth (CAMHB) of the test compound was done from the top row to the bottom row of the 96-well plate to reach an end concentration of 0.125 µg mL-1 in the bottom row. Afterwards, the respective test strains were transferred into the wells, reaching a total volume of 100 µL and 5x10^5 colony-forming units (CFU) mL-1. After a 20 to 22 h of incubation, the optical density was evaluated on a microplate reader and the MIC endpoint was determined as the lowest concentration of antibiotic at which there was no visible growth observed. Each MIC experiment was performed in duplicates. Table S 4 depicts the MIC values of Corramycin against all bacterial strains tested in this study.
(§3) Table S 4. MIC values of Corramycin against all bacterial strains tested in this study. […]

[5] = test system: Enterococcus faecium DSM17050; assay type: cell-based; settings: strain DSM17050; CAMHB, CLSI/EUCAST broth microdilution, 5x10^5 CFU mL-1, 20-22 h, duplicates
Method: as §2, §3

Escherichia coli 1705863 = assay type: cell-based; settings: strain 1705863; CAMHB, CLSI/EUCAST broth microdilution, 5x10^5 CFU mL-1, 20-22 h, duplicates
Method: as §2, §3

[6] = test system: Klebsiella pneumoniae 1705949; assay type: cell-based; settings: strain 1705949; CAMHB, CLSI/EUCAST broth microdilution, 5x10^5 CFU mL-1, 20-22 h, duplicates
Method: as §2, §3

[7] = test system: Escherichia coli DSM46345; assay type: cell-based; settings: strain DSM46345; CAMHB, CLSI/EUCAST broth microdilution, 5x10^5 CFU mL-1, 20-22 h, duplicates
Method: as §2, §3

[8] = assay type: in vivo; settings: single i.v. bolus 30 mg kg-1, male Swiss mice, LC/MS-MS, three animals per sampling time
Method: However, despite this rapid elimination, the antibacterial effect was strong enough in the animals to achieve survival after a single day of treatment.
Figure S 71. A) Blood bacteremia experiment. E. coli ATCC35218 CFU load after treatment of infected mice with 10 mg kg-1, 20 mg kg-1 or 30 mg kg-1 Corramycin. B) Survival of the E. coli ATCC35218 infected mice in %, after one day of treatment with either 0.9 % NaCl (negative control), Tienam (15 mg kg-1 Imipenem; positive control) or Corramycin in three different doses (10 mg kg-1, 20 mg kg-1 or 30 mg kg-1).
14.2 Corramycin elimination experiment
Native Corramycin systemic exposure was determined following a single intravenous (30 mg kg-1 expressed as active compound) bolus administration to male Swiss mice. […]
Lung, brain, kidney, heart and liver were collected at each sampling time (5 min, 0.5, 1, 2, 4, 6, 8 and 24 h post administration) pooled per sampling time, weighed and frozen at -20 °C until analysis. Native Corramycin was quantified in the plasma and tissues using an exploratory LC/MS-MS assay method in Early Bioanalysis Group of Toulouse (Montpellier DSAR Operational Center), France. […] The pharmacokinetic parameters were calculated from the arithmetic mean of the plasma concentrations or the tissue concentrations (lung, brain, kidney, heart and liver) using the program WinNonLin 5.2, non-compartmental models 200 and 201. […]

## CO[C@@H](CNC(=O)[C@H](NC(=O)[C@H](O)[C@H](C)O)[C@H](O)c1cncn1C)[C@H](O)[C@H](O)C(=O)N(C)[C@@H](Cc1ccccc1)C(=O)NCC(=O)N[C@H](C(=O)N[C@@H](CO)C(=O)N[C@H](C(=O)N[C@@H](CC(C)C)C(=O)N[C@@H](CO)C(=O)O)C(C)(C)O)C(C)(C)O [Corramycin] ({Butanoyl(2R-OH,3S-OH)}-[dHis(βS-OH,π-Me)][Ava(2S,3R-(OH)2,4S-OMe)][NMeF]G[Val(3-OH)]S[Val(3-OH)]LS-OH)
[1]
  MIC: >64 mg/L
[2]
  MIC: 4 mg/L (≈ 3.38 µM)
[3]
  MIC: 16 mg/L (≈ 13.5 µM)
[4]
  MIC: 8 mg/L (≈ 6.76 µM)
[5]
  MIC: 64 mg/L (≈ 54 µM)
Escherichia coli 1705863
  MIC: 8 mg/L (≈ 6.76 µM)
[6]
  MIC: 64 mg/L (≈ 54 µM)
[7]
  MIC: 32 mg/L (≈ 27 µM)
[8]
  Time of plasma concentration above the MIC after i.v. administration: less than 30 minutes
